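Five compound concentrations were applied to cells in 96-well plates for 48 hours; endpoints were derived by simple linear interpolation of the resulting dose-response curve. GI50 marks 50% less growth.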 Calls of active or inactive are those of the source. Cut-off read from the data, not from the text of the source: active = GI50 up to about 1.1 µM and inactive = higher.
Columns and labels:
Experiment in all cases: NCI-60 cell line screen, 48 h
[1] = tested on: SK-OV-3
[2] = tested on: SK-MEL-2
[3] = tested on: COLO 205
[4] = tested on: RPMI-8226
[5] = tested on: Hs-578T
[6] = tested on: SN12C
[7] = tested on: UO-31
[8] = tested on: SNB-19
[9] = tested on: ACHN
[10] = tested on: SNB-75
[11] = tested on: LOX IMVI
[12] = tested on: 786-0
[13] = tested on: HCT-15
[14] = tested on: SR
[15] = tested on: NCI-H226
[16] = tested on: NCI-H23
[17] = tested on: SF-539
[18] = tested on: NCI/ADR-RES
[19] = tested on: HOP-62
[20] = tested on: EKVX
[21] = tested on: UACC-257
[22] = tested on: SF-295
[23] = tested on: HCT-116
[24] = tested on: NCI-H522
[25] = tested on: TK-10
[26] = tested on: SW-620
[27] = tested on: BT-549
[28] = tested on: HCC 2998
[29] = tested on: M14
[30] = tested on: SK-MEL-28
[31] = tested on: OVCAR-5
[32] = tested on: HOP-92
[33] = tested on: UACC-62
[34] = tested on: MDA-MB-231
[35] = tested on: PC-3
[36] = tested on: IGROV-1
[37] = tested on: T47D
[38] = tested on: CAKI-1
[39] = tested on: A498
[40] = tested on: SF-268
[41] = tested on: HL-60
[42] = tested on: MDA-MB-435
[43] = tested on: NCI-H460
[44] = tested on: U-251
[45] = tested on: DU-145
[46] = tested on: A549
[47] = tested on: SK-MEL-5
[48] = tested on: KM12
[49] = tested on: OVCAR-3
[50] = tested on: OVCAR-4
[51] = tested on: RXF 393
[52] = tested on: HT-29
[53] = tested on: MOLT-4
[54] = tested on: MCF7
[55] = tested on: OVCAR-8
[56] = tested on: K562
[57] = tested on: Malme-3M
[58] = tested on: CCRF-CEM

With CN(C)CN1C(=O)S/C(=C2\C(=O)N(CN(C)C)c3ccccc32)C1=O the GI50 [1] was > 100 µM (inactive), the GI50 [2] was 32.1 µM (inactive) and the GI50 [3] was 36.4 µM (inactive). For the same compound, the GI50 [4] was 18 µM (inactive), the GI50 [5] was 34.7 µM (inactive) and the GI50 [6] was 23.7 µM (inactive). The GI50 [7] was 31.3 µM (inactive), the GI50 [8] was 67.5 µM (inactive) and the GI50 [9] was 43.7 µM (inactive). For the same compound, the GI50 [10] was 22.2 µM (inactive), the GI50 [11] was 21.2 µM (inactive) and the GI50 [12] was 35.7 µM (inactive). The GI50 [13] was 30.4 µM, the GI50 [14] was 18.9 µM (inactive) and the GI50 [15] was 38.9 µM (inactive). For the same compound, the GI50 [16] was 21.7 µM (inactive), the GI50 [17] was 40.6 µM (inactive) and the GI50 [18] was 40.2 µM (inactive). For the same compound, the GI50 [19] was 41.6 µM (inactive), the GI50 [20] was 43.3 µM (inactive) and the GI50 [21] was 32.7 µM (inactive). The GI50 [22] was 96.6 µM (inactive), the GI50 [23] was 39.8 µM (inactive) and the GI50 [24] was 36.5 µM (inactive). The GI50 [25] was 46.3 µM (inactive), the GI50 [26] was 30.6 µM (inactive) and the GI50 [27] was 45.1 µM (inactive). For the same compound, the GI50 [28] was 26.8 µM (inactive), the GI50 [29] was 21.7 µM (inactive) and the GI50 [30] was 64.7 µM (inactive). The GI50 [31] was > 100 µM (inactive), the GI50 [32] was > 100 µM (inactive) and the GI50 [33] was 65.3 µM (inactive). The GI50 [34] was 66.2 µM (inactive), the GI50 [35] was 45.6 µM (inactive) and the GI50 [36] was 57.5 µM (inactive). The GI50 [37] was 39.4 µM (inactive), the GI50 [38] was 32 µM (inactive) and the GI50 [39] was > 100 µM (inactive). For the same compound, the GI50 [40] was 32.8 µM (inactive), the GI50 [41] was 18.2 µM (inactive) and the GI50 [42] was 66.1 µM (inactive). The GI50 [43] was 32.3 µM (inactive), the GI50 [44] was 40.6 µM (inactive) and the GI50 [45] was 32.1 µM (inactive). The GI50 [46] was 45.8 µM (inactive), the GI50 [47] was 38.6 µM (inactive) and the GI50 [48] was 41.5 µM (inactive). For the same compound, the GI50 [49] was 50.2 µM (inactive), the GI50 [50] was 55.1 µM (inactive) and the GI50 [51] was 19.9 µM (inactive). The GI50 [52] was 42.4 µM (inactive), the GI50 [53] was < 0.01 µM (active) and the GI50 [54] was 38.5 µM (inactive). The GI50 [55] was 46.6 µM (inactive).
O=C(/C=C/c1ccc(Cl)cc1)c1ccccc(=O)c1O was tested, and the GI50 [1] was 3.56 µM (inactive), the GI50 [2] was 1.75 µM (inactive) and the GI50 [56] was 1.17 µM (inactive). For the same compound, the GI50 [3] was 1.23 µM (inactive), the GI50 [4] was 1.07 µM (active) and the GI50 [5] was 4.99 µM (inactive). The GI50 [6] was 0.643 µM (active), the GI50 [7] was 1.51 µM (inactive) and the GI50 [8] was 2.72 µM (inactive). For the same compound, the GI50 [9] was 0.881 µM (active), the GI50 [10] was 2.86 µM (inactive) and the GI50 [11] was 1.29 µM (inactive). The GI50 [12] was 1.18 µM (inactive), the GI50 [13] was 0.341 µM and the GI50 [14] was 0.238 µM (active). The GI50 [15] was 1.41 µM (inactive), the GI50 [16] was 2.71 µM (inactive) and the GI50 [17] was 2.32 µM (inactive). For the same compound, the GI50 [18] was 0.36 µM (active), the GI50 [19] was 2.65 µM (inactive) and the GI50 [20] was 1.93 µM (inactive). For the same compound, the GI50 [21] was 2.49 µM (inactive), the GI50 [22] was 1.22 µM (inactive) and the GI50 [23] was 0.957 µM (active). For the same compound, the GI50 [24] was 5.42 µM (inactive), the GI50 [25] was 4.55 µM (inactive) and the GI50 [26] was 4.38 µM (inactive). The GI50 [27] was 2.3 µM (inactive), the GI50 [28] was 0.579 µM (active) and the GI50 [29] was 2.87 µM (inactive). The GI50 [30] was 3.43 µM (inactive), the GI50 [31] was 6.34 µM (inactive) and the GI50 [32] was 3.54 µM (inactive). For the same compound, the GI50 [33] was 1.14 µM (inactive), the GI50 [34] was 1.44 µM (inactive) and the GI50 [35] was 4.08 µM (inactive). For the same compound, the GI50 [36] was 1.82 µM (inactive), the GI50 [37] was 4.36 µM (inactive) and the GI50 [57] was 1.33 µM (inactive). The GI50 [38] was 0.614 µM (active), the GI50 [39] was 2.84 µM (inactive) and the GI50 [40] was 3.12 µM (inactive). For the same compound, the GI50 [41] was 0.516 µM (active), the GI50 [42] was 0.977 µM (active) and the GI50 [43] was 0.461 µM (active). For the same compound, the GI50 [44] was 2.26 µM (inactive), the GI50 [45] was 2.61 µM (inactive) and the GI50 [46] was 1.41 µM (inactive). For the same compound, the GI50 [47] was 0.621 µM (active), the GI50 [48] was 1.53 µM (inactive) and the GI50 [49] was 3.64 µM (inactive). The GI50 [50] was 0.673 µM (active), the GI50 [51] was 2.81 µM (inactive) and the GI50 [52] was 2.58 µM (inactive). The GI50 [53] was 0.798 µM (active), the GI50 [54] was 2.43 µM (inactive) and the GI50 [58] was 0.255 µM (active). For the same compound, the GI50 [55] was 0.698 µM (active).
With Cc1nc2cn3c(c2c(=O)[nH]1)CCCCC3 the GI50 [1] was > 100 µM (inactive), the GI50 [2] was > 100 µM (inactive) and the GI50 [56] was > 100 µM (inactive). The GI50 [3] was > 100 µM (inactive), the GI50 [4] was > 100 µM (inactive) and the GI50 [5] was > 100 µM (inactive). The GI50 [7] was > 100 µM (inactive), the GI50 [8] was > 100 µM (inactive) and the GI50 [9] was > 100 µM (inactive). For the same compound, the GI50 [10] was > 100 µM (inactive), the GI50 [11] was > 100 µM (inactive) and the GI50 [12] was > 100 µM (inactive). For the same compound, the GI50 [13] was over 100 µM, the GI50 [14] was > 100 µM (inactive) and the GI50 [15] was > 100 µM (inactive). The GI50 [16] was > 100 µM (inactive), the GI50 [17] was > 100 µM (inactive) and the GI50 [18] was > 100 µM (inactive). For the same compound, the GI50 [19] was > 100 µM (inactive), the GI50 [20] was > 100 µM (inactive) and the GI50 [21] was > 100 µM (inactive). For the same compound, the GI50 [22] was > 100 µM (inactive), the GI50 [23] was > 100 µM (inactive) and the GI50 [25] was > 100 µM (inactive). For the same compound, the GI50 [26] was > 100 µM (inactive), the GI50 [27] was > 100 µM (inactive) and the GI50 [28] was > 100 µM (inactive). The GI50 [29] was > 100 µM (inactive), the GI50 [30] was > 100 µM (inactive) and the GI50 [32] was > 100 µM (inactive). For the same compound, the GI50 [33] was > 100 µM (inactive), the GI50 [34] was 28.2 µM (inactive) and the GI50 [35] was > 100 µM (inactive). The GI50 [36] was > 100 µM (inactive), the GI50 [37] was > 100 µM (inactive) and the GI50 [38] was > 100 µM (inactive). For the same compound, the GI50 [39] was > 100 µM (inactive), the GI50 [40] was > 100 µM (inactive) and the GI50 [41] was > 100 µM (inactive). The GI50 [42] was > 100 µM (inactive), the GI50 [43] was > 100 µM (inactive) and the GI50 [44] was > 100 µM (inactive). The GI50 [45] was > 100 µM (inactive), the GI50 [47] was > 100 µM (inactive) and the GI50 [48] was > 100 µM (inactive). For the same compound, the GI50 [50] was > 100 µM (inactive), the GI50 [51] was > 100 µM (inactive) and the GI50 [52] was > 100 µM (inactive). For the same compound, the GI50 [53] was > 100 µM (inactive), the GI50 [54] was > 100 µM (inactive) and the GI50 [58] was > 100 µM (inactive). The GI50 [55] was > 100 µM (inactive).

— ChEMBL document CHEMBL1201862, “PubChem BioAssay data set” (2004)
